Patent US20190298740A1, “METHODS AND COMPOSITIONS FOR TREATING HALLUCINATIONS AND CONDITIONS RELATED TO THE SAME” (Enterin, Inc., priority 2018, published 2019)
“Also recorded” adds a separate entry of the source.

What was measured:
patients with PD = assay: Circadian rhythm of wrist skin temperature; assay type: in vivo, human; conditions: oral, 12 patients with evaluable data
Procedure: (6) I-Button Temperature Assessment. The I-Button is a small, rugged self-sufficient system that measures temperature and records the results in a protected memory section. The Thermochron I-Button DS1921H (Maxim Integrated, Dallas, Tex.) was used for skin temperature measurement. I-Buttons were programmed to sample every 10 mins., and attached to a double-sided cotton sport wrist band using Velcro, with the sensor face of the I-Button placed over the inside of the wrist, on the radial artery of the dominant hand. Subjects removed and replaced the data logger when necessary (i.e., to have a bath or shower). […] From the collected data, the mesor, amplitude, acrophase (time of peak temperature), Rayleight test (an index of interdaily stability), mean waveforms are calculated);
Assessments were made at baseline and at the end of the fixed dose and washout periods. Circadian system status was evaluated by continuously monitoring wrist skin temperature (Thermochron iButton DS1921H; Maxim, Dallas) following published procedures (Sarabia et al. 2008).
Circadian rhythm of skin temperature was evaluable in 12 patients (i.e., those who had recordings that extended from baseline through washout). Circadian system functionality was evaluated by continuously monitoring wrist skin temperature using a temperature sensor (Thermochron iButton DS1921H; Maxim, Dallas, Tex.) (Sarabia et al. 2008). […]

αS = αS (Homo sapiens, UniProt P37840); conditions: in vitro; cited from earlier work
mouse models of PD = conditions: cited from earlier work

## CC(C)[C@@H](CC[C@@H](C)[C@H]1CC[C@H]2[C@@H]3[C@H](O)C[C@H]4C[C@@H](NCCCNCCCCN)CC[C@]4(C)[C@H]3CC[C@]12C)OS(=O)(=O)O (single isomer, unassigned) [squalamine (ENT-01)]
Patients with PD
  Circadian rhythm of skin temperature, overall: significant positive impact; also recorded: improved all markers of healthy circadian function
αS
  Formation of aggregates of αS: inhibits the formation of αS aggregates
Mouse models of PD
  Gastrointestinal motility: restores gastrointestinal motility
